# Legend:
# [1] = biological target: CYP3A4 (Homo sapiens, UniProt P08684); experiment: Single point CYP450 inhibition test; assay type: in vitro ADME
# [2] = biological target: CYP2D6 (Homo sapiens, UniProt P10635); experiment: Single point CYP450 inhibition test; assay type: in vitro ADME; conditions: for inhibition at 10 µM: human, CYP2D6 % inhibition
# [3] = biological target: PI3K-C2β (Homo sapiens, UniProt O00750); experiment: Ambit KINOMEscan; assay type: binding
# [4] = biological target: P110α/P85α (Homo sapiens, UniProt P42336); experiment: Ambit KINOMEscan; assay type: binding
# Sequence of P110α/P85α (P42336 whole entry): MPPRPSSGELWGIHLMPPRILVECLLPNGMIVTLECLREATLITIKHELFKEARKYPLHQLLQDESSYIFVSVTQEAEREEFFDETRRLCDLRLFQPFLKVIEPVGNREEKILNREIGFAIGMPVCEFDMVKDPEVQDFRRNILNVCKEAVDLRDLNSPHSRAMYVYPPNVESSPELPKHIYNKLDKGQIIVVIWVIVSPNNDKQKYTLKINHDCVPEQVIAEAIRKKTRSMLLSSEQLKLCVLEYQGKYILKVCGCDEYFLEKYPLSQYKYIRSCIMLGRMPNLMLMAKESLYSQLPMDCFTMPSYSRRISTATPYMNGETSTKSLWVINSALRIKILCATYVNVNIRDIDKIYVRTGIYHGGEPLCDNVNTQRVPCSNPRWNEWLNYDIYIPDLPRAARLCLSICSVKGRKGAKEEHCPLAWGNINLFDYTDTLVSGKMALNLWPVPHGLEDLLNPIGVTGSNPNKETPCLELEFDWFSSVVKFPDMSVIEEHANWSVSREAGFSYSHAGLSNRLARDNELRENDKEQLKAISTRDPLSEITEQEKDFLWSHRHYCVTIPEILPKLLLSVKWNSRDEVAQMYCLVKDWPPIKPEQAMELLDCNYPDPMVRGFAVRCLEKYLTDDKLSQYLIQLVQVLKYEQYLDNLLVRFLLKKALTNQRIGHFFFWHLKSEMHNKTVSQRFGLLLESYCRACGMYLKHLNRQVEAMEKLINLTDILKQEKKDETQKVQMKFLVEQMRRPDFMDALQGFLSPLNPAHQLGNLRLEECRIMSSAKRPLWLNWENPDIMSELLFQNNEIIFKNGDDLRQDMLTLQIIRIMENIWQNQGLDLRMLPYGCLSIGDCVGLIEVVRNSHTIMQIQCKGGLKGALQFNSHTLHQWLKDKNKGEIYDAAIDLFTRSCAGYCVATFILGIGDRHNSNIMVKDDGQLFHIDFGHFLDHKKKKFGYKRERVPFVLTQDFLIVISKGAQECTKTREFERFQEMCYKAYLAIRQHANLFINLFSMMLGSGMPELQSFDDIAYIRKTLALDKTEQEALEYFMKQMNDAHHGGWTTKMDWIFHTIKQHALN
# [5] = biological target: T1, P110δ/P85α (Homo sapiens, UniProt O00329); experiment: Ambit KINOMEscan; assay type: binding
# T1 sequence (O00329 1-1044): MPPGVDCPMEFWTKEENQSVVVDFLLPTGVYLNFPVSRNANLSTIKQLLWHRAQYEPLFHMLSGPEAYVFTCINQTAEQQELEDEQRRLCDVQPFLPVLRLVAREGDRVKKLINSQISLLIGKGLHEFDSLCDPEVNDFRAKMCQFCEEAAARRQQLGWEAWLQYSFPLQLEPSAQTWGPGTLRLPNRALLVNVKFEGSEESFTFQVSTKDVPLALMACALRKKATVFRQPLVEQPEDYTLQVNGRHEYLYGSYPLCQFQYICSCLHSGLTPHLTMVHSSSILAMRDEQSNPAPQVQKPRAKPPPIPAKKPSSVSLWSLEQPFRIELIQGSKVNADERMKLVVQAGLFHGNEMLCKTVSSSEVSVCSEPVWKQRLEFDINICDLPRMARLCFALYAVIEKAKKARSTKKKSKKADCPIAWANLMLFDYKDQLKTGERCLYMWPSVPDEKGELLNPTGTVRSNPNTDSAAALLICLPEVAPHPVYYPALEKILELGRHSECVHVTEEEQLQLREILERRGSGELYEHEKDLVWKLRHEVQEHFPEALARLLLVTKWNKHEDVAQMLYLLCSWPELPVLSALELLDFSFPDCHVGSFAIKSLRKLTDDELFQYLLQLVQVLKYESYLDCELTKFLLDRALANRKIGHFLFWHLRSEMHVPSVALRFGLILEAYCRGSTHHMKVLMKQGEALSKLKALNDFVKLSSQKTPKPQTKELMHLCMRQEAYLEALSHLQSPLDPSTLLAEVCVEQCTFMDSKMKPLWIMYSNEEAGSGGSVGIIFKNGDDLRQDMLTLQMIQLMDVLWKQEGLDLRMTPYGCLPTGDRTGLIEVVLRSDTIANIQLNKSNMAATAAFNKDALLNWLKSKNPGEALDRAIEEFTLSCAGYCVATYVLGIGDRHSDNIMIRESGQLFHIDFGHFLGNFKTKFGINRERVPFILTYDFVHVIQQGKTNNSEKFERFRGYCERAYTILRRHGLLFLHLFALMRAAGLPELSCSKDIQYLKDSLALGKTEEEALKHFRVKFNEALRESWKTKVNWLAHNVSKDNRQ
# [6] = biological target: P110γ (Homo sapiens, UniProt P48736); experiment: Ambit KINOMEscan; assay type: binding
# Sequence of P110γ (P48736 whole entry): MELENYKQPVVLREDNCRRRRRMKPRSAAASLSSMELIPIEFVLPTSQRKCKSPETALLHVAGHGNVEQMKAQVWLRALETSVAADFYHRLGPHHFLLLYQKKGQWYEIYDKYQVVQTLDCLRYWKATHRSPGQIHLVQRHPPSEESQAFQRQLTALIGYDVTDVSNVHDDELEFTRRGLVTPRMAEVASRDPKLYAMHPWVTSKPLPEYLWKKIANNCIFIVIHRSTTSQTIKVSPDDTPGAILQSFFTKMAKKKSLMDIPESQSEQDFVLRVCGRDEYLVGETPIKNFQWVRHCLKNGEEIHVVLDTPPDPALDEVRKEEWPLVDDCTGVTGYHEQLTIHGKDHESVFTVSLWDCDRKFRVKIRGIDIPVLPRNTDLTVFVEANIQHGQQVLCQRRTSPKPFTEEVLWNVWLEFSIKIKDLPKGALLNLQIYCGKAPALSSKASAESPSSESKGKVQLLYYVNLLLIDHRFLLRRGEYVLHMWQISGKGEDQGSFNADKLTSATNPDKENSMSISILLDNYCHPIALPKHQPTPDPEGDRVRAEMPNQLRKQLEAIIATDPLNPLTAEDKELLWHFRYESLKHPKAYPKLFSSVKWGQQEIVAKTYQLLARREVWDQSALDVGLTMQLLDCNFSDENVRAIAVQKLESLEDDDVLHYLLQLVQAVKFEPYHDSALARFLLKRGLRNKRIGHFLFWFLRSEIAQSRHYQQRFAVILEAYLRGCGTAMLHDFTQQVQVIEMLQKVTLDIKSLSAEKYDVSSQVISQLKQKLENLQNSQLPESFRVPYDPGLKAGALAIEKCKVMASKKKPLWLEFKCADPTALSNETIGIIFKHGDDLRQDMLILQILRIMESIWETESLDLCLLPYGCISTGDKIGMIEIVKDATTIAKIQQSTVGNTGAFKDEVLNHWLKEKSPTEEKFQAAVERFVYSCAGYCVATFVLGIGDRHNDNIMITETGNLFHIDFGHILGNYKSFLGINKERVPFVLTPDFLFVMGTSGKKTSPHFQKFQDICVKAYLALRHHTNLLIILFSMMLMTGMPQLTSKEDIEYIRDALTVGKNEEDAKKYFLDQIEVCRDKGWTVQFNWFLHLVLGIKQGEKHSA
# [7] = biological target: mTOR (Homo sapiens, UniProt P42345); experiment: Ambit KINOMEscan; assay type: binding
# [8] = test system: downstream targets of mTOR, S6K, and Akt; experiment: In vivo pharmacodynamic study; conditions: liver and lung tissues, after 6h, 20 mg/kg
# [9] = test system: 450 kinases; conditions: 450 kinases profiled by KINOMEscan; cited from earlier work
# [10] = test system: U87-MG mouse xenograft; conditions: cited from earlier work
# Sequence of CYP2D6 (P10635 whole entry): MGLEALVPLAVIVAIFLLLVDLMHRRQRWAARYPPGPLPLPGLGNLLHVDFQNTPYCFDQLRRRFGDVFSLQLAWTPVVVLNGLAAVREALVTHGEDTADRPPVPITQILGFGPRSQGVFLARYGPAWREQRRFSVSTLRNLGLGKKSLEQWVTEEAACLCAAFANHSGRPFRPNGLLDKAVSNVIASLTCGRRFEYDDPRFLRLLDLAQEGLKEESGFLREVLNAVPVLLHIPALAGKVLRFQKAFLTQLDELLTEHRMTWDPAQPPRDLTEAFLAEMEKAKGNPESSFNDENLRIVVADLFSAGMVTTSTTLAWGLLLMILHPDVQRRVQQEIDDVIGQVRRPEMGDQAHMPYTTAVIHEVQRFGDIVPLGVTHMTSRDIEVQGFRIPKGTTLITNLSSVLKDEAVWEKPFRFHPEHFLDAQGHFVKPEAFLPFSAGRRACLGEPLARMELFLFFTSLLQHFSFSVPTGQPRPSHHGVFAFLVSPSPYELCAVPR
# Sequence of PI3K-C2β (O00750 whole entry): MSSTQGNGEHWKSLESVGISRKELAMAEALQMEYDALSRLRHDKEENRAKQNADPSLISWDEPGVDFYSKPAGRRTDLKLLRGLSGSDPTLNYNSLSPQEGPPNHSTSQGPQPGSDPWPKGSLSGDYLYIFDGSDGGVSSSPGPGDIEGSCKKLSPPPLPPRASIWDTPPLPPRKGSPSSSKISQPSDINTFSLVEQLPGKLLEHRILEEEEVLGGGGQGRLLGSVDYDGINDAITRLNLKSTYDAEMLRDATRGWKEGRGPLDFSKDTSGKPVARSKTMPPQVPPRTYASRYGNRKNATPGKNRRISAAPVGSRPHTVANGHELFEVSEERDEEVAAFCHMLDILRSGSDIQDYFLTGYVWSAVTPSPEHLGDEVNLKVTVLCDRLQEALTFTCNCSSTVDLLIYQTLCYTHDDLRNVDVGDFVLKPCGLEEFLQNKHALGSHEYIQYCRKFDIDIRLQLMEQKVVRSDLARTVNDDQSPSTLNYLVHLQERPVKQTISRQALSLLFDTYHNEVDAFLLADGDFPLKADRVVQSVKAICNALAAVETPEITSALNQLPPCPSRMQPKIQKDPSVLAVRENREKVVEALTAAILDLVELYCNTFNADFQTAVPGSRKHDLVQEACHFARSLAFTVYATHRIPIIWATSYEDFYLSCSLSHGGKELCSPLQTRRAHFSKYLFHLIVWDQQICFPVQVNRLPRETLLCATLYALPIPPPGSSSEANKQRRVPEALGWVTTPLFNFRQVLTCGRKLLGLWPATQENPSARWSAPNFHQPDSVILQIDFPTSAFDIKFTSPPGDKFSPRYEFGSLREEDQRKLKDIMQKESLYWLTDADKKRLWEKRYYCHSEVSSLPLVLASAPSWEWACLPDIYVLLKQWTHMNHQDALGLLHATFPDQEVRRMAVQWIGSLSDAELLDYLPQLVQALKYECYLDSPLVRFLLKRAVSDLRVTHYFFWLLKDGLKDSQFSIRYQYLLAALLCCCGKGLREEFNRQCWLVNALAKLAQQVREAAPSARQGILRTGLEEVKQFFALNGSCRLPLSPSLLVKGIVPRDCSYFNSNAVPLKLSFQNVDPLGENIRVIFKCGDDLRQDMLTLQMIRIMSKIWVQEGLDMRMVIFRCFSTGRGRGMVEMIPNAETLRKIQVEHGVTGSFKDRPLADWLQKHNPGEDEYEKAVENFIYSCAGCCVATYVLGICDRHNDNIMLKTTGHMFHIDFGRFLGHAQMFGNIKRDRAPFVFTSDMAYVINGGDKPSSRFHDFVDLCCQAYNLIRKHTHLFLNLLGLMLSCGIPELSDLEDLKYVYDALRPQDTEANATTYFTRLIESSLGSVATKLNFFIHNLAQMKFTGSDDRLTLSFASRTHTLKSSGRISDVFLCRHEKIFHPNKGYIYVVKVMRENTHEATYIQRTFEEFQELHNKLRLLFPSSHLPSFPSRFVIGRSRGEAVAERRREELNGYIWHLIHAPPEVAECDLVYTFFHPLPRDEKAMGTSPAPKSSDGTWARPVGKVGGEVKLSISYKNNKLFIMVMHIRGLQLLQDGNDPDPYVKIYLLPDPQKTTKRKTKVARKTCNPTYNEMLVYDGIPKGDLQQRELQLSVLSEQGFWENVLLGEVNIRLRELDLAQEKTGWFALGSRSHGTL
# Sequence of CYP3A4 (P08684 whole entry): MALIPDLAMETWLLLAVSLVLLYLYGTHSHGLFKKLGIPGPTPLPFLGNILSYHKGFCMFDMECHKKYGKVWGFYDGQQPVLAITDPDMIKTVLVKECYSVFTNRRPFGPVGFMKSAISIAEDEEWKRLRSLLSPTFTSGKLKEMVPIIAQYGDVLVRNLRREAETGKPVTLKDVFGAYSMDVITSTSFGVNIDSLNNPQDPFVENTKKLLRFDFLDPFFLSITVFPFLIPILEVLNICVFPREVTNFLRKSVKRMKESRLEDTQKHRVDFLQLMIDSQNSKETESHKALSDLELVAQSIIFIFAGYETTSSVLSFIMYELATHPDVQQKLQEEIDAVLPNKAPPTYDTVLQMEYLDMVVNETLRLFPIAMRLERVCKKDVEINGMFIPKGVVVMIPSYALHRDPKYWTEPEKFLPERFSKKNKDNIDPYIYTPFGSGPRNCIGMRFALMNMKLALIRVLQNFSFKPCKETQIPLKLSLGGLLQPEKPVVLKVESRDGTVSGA
inhibition at 10 µM [1] [%],CYP2D6 % inhibition ([2]; 10 µM) [%],inhibition at 10 µM [2] [%],Ambit score [3] [%],Ambit score [4] [%],Ambit score [5] [%],Ambit score [6] [%],Ambit score [7] [%],SMILES,blocked phosphorylation of S6K (T389) [8],blocked phosphorylation of pAkt (S473) [8],protein kinase off-targets [9],anti-tumor activity [10]
> 60,51,> 50,0.65,0.1,2,0.05,0,CN1CCC(NC(=O)c2ccc(-c3ccc(-n4c(=O)ccc5cnc6ccc(-c7cnc8ccccc8c7)cc6c54)cc3C(F)(F)F)cc2)CC1 [Compound 10],80–90%,80–90%,,
,,24,,,,,,Cc1cc(-n2c(=O)ccc3cnc4ccc(-c5cnc6ccccc6c5)cc4c32)ccc1-c1ccc(C(=O)NC2CCN(C)CC2)cc1 [Compound 19],,,,
,,,,,,,,CCC(=O)N1CCN(c2ccc(-n3c(=O)ccc4cnc5ccc(-c6cnc7ccccc7c6)cc5c43)cc2C(F)(F)F)CC1 [Torin1],,,no other significant protein kinase off-targets,exhibited anti-tumor activity

# From paper PMC3929239 (Bioorganic & medicinal chemistry letters, 2011)
